Laboratory results as given in US11247965B2 (VenatoRx Pharmaceuticals, Inc., priority 2017, dated 2022).

Assays:
[1] = In vitro cytotoxicity, MTT cell viability assay in HepG2 cells; assay type: cell-based; conditions: human, Cytotoxicity CC50
Outline: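 Using MTT conversion as the viability measure, HepG2 cells were incubated with compounds for 7 days (30 μM to 1.0 nM). Absorbance at 492 nm was normalized to vehicle and fitted to give CC50.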

[2] = system: HBV replication in HepAD38 cells; assay: Anti-HBV activity in HepAD38 cells, extracellular HBV DNA by QPCR; assay type: cell-based, HBV (genotype D, serotype ayw); conditions: Hepatitis B virus, HePAD38, 168 h, read-out: Anti-HBV EC50, HepAD38 cells, extracellular HBV DNA by QPCR, 7 days of incubation
Outline: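 Seven-day compound exposure (30 μM down to 10 nM, half-log steps) after tetracycline withdrawal induced HBV replication in HepAD38 cells. Extracellular viral DNA measured by QPCR (copies/mL via standard curve), normalised to DMSO wells; EC50 from 4-parameter non-linear regression.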

For `NC(=O)c1cc(NC(=O)c2ccc(Cl)c(C(F)(F)C(=O)N3CCC(O)CC3)c2)ccc1F` [Example 60, N-(3-carbamoyl-4-fluorophenyl)-4-chloro-3-(1,1-difluoro-2-(4-hydroxypiperidin-1-yl)-2-oxoethyl)benzamide], which CC50 at 7 days [1] is on record?
The CC50 at 7 days was > 30 µM.

What about the EC50 [2] of the same molecule?
Its EC50 is 5 to 30 µM.

Which CC50 at 7 days [1] does the source give for `COc1cc(NC(=O)c2ccc(Cl)c(C(F)(F)C(=O)N3CCC(O)CC3)c2)cc(F)c1F` [Example 61, 4-chloro-3-(1,1-difluoro-2-(4-hydroxypiperidin-1-yl)-2-oxoethyl)-N-(3,4-difluoro-5-methoxyphenyl)benzamide] here?
Its CC50 at 7 days is > 30 µM.

And the EC50 [2]?
The EC50 was 5 to 30 µM.

Which CC50 at 7 days [1] does the source give for `Cc1cc(NC(=O)c2ccc(Br)c(C(F)(F)C(=O)N3CCC(O)CC3)c2)ccc1F` [Example 62, 4-bromo-3-(1,1-difluoro-2-(4-hydroxypiperidin-1-yl)-2-oxoethyl)-N-(4-fluoro-3-methylphenyl)benzamide] here?
Its CC50 at 7 days is > 30 µM.

And the EC50 [2]?
Its EC50 is < 5 µM.

Which results are given for `Cc1cc(NC(=O)c2ccc(C(F)(F)C(=O)N3CCC(O)CC3)s2)ccc1F` [Example 63, 5-(1,1-difluoro-2-(4-hydroxypiperidin-1-yl)-2-oxoethyl)-N-(4-fluoro-3-methylphenyl)thiophene-2-carboxamide]?
CC50 at 7 days [1]: 5 to 30 µM; EC50 [2]: > 30 µM

For `COc1ccc(CNC(=O)C(F)(F)c2cc(C(=O)Nc3ccc(F)c(F)c3)ccc2F)c(OC)c1` [Example 64, N-(3,4-difluorophenyl)-3-(2-((2,4-dimethoxybenzyl)amino)-1,1-difluoro-2-oxoethyl)-4-fluorobenzamide], which CC50 at 7 days [1] is on record?
Its CC50 at 7 days is 5 to 30 µM.

And the EC50 [2]?
The EC50 was 5 to 30 µM.

Which CC50 at 7 days [1] does the source give for `O=C(Nc1ccc(F)c(F)c1)c1ccc(F)c(C(F)(F)C(=O)NCc2ccc(O)cc2)c1` [Example 65, 3-(1,1-difluoro-2-((4-hydroxybenzyl)amino)-2-oxoethyl)-N-(3,4-difluorophenyl)-4-fluorobenzamide] here?
The CC50 at 7 days was 5 to 30 µM.

And the EC50 [2]?
Its EC50 is 5 to 30 µM.

What does the source list for `O=C(Nc1ccc(F)c(F)c1)c1ccc(F)c(C(F)(F)C(=O)NCc2cccnc2)c1` [Example 66, 3-(1,1-difluoro-2-oxo-2-((pyridin-3-ylmethyl)amino)ethyl)-N-(3,4-difluorophenyl)-4-fluorobenzamide]?
CC50 at 7 days [1]: > 30 µM; EC50 [2]: 5 to 30 µM

Which CC50 at 7 days [1] does the source give for `Cc1cc(NC(=O)c2cc(C(F)(F)C(=O)N3CCC(O)CC3)c(Cl)cc2C)ccc1F` [Example 67, 4-chloro-5-(1,1-difluoro-2-(4-hydroxypiperidin-1-yl)-2-oxoethyl)-N-(4-fluoro-3-methylphenyl)-2-methylbenzamide] here?
The CC50 at 7 days was > 30 µM.

And the EC50 [2]?
The EC50 was < 5 µM.

Which CC50 at 7 days [1] does the source give for `Cc1cc(NC(=O)c2ccc(F)c(C(F)(F)C(=O)NCc3nccs3)c2)ccc1F` [Example 68, 3-(1,1-difluoro-2-oxo-2-((thiazol-2-ylmethyl)amino)ethyl)-4-fluoro-N-(4-fluoro-3-methylphenyl)benzamide] here?
The CC50 at 7 days was 5 to 30 µM.

And the EC50 [2]?
The EC50 was < 5 µM.

Which CC50 at 7 days [1] does the source give for `Cc1cc(NC(=O)c2ccc(F)c(C(F)(F)C(=O)N3CCC(O)C(CO)C3)c2)ccc1F` (stereo not drawn) [Example 69, 3-(1,1-difluoro-2-(4-hydroxy-3-(hydroxymethyl)piperidin-1-yl)-2-oxoethyl)-4-fluoro-N-(4-fluoro-3-methylphenyl)benzamide] here?
Its CC50 at 7 days is > 30 µM.

What about the EC50 [2] of the same molecule?
Its EC50 is < 5 µM.

For `Cc1cc(NC(=O)c2ccc(F)c(C(F)(F)C(=O)N3CCC(C)(O)CC3)c2)ccc1F` [Example 70, 3-(1,1-difluoro-2-(4-hydroxy-4-methylpiperidin-1-yl)-2-oxoethyl)-4-fluoro-N-(4-fluoro-3-methylphenyl)benzamide], which CC50 at 7 days [1] is on record?
Its CC50 at 7 days is 5 to 30 µM.

What about the EC50 [2] of the same molecule?
The EC50 was < 5 µM.

Which CC50 at 7 days [1] does the source give for `Cc1cc(NC(=O)c2ccc(F)c(C(F)(F)C(=O)N3CCC(O)CC3(C)C)c2)ccc1F` (stereo not drawn) [Example 71, 3-(1,1-difluoro-2-(4-hydroxy-2,2-dimethylpiperidin-1-yl)-2-oxoethyl)-4-fluoro-N-(4-fluoro-3-methylphenyl)benzamide] here?
The CC50 at 7 days was > 30 µM.

What about the EC50 [2] of the same molecule?
Its EC50 is 5 to 30 µM.

What does the source list for `Cc1cc(NC(=O)c2ccc(F)c(C(F)(F)C(=O)N3CCC(O)C(C)(C)C3)c2)ccc1F` (stereo not drawn) [Example 72]?
CC50 at 7 days [1]: 5 to 30 µM; EC50 [2]: < 5 µM

Which results are given for `Cc1cc(NC(=O)c2ccc(F)c(C(F)(F)C(=O)N3CCC(F)(F)C3)c2)ccc1F` [Example 73, 3-(2-(3,3-difluoropyrrolidin-1-yl)-1,1-difluoro-2-oxoethyl)-4-fluoro-N-(4-fluoro-3-methylphenyl)benzamide]?
CC50 at 7 days [1]: 5 to 30 µM; EC50 [2]: 5 to 30 µM

With `Cc1cc(NC(=O)c2ccc(Cl)c(C(F)(F)C(=O)N3CC=CCC3)c2)ccc1F` [Example 74, 4-chloro-3-(2-(3,6-dihydropyridin-1(2H)-yl)-1,1-difluoro-2-oxoethyl)-N-(4-fluoro-3-methylphenyl)benzamide] as the molecule, how does the CC50 at 7 days [1] read?
The CC50 at 7 days was 5 to 30 µM.

What about the EC50 [2] of the same molecule?
Its EC50 is < 5 µM.

For `Cc1cc(NC(=O)c2ccc(F)c(C(F)(F)C(=O)N3CCC(O)(CO)CC3)c2)ccc1F` [Example 75, 3-(1,1-difluoro-2-(4-hydroxy-4-(hydroxymethyl)piperidin-1-yl)-2-oxoethyl)-4-fluoro-N-(4-fluoro-3-methylphenyl)benzamide], which CC50 at 7 days [1] is on record?
Its CC50 at 7 days is 5 to 30 µM.

And the EC50 [2]?
The EC50 was < 5 µM.

With `Cc1cc(NC(=O)c2ccc(F)c(C(F)(F)C(=O)N3CCc4cn[nH]c4C3)c2)ccc1F` [Example 76, 3-(1,1-difluoro-2-oxo-2-(1,4,5,7-tetrahydro-6H-pyrazolo[3,4-c]pyridin-6-yl)ethyl)-4-fluoro-N-(4-fluoro-3-methylphenyl)benzamide] as the molecule, how does the CC50 at 7 days [1] read?
Its CC50 at 7 days is 5 to 30 µM.

What about the EC50 [2] of the same molecule?
Its EC50 is < 5 µM.

For `Cc1cc(NC(=O)c2ccc(F)c(C(F)(F)C(=O)N3CCC(O)C(F)(F)C3)c2)ccc1F` (stereo not drawn) [Example 77, 3-(2-(3,3-difluoro-4-hydroxypiperidin-1-yl)-1,1-difluoro-2-oxoethyl)-4-fluoro-N-(4-fluoro-3-methylphenyl)benzamide], which CC50 at 7 days [1] is on record?
Its CC50 at 7 days is 5 to 30 µM.

And the EC50 [2]?
Its EC50 is < 5 µM.

Which CC50 at 7 days [1] does the source give for `Cc1cc(NC(=O)c2ccc(F)c(C(F)(F)C(=O)N3C4CCC3CC(O)C4)c2)ccc1F` [Example 78, 3-(1,1-difluoro-2-((1R,3r,5S)-3-hydroxy-8-azabicyclo[3.2.1]octan-8-yl)-2-oxoethyl)-4-fluoro-N-(4-fluoro-3-methylphenyl)benzamide] here?
Its CC50 at 7 days is 5 to 30 µM.

What about the EC50 [2] of the same molecule?
Its EC50 is < 5 µM.

Which CC50 at 7 days [1] does the source give for `Cc1cc(NC(=O)c2ccc(F)c(C(F)(F)C(=O)N[C@H]3CC[C@H](O)CC3)c2)ccc1F` [Example 79, 3-(1,1-difluoro-2-(((1r,4r)-4-hydroxycyclohexyl)amino)-2-oxoethyl)-4-fluoro-N-(4-fluoro-3-methylphenyl)benzamide] here?
The CC50 at 7 days was > 30 µM.

What about the EC50 [2] of the same molecule?
The EC50 was 5 to 30 µM.

Which CC50 at 7 days [1] does the source give for `CC(C)n1cc(NC(=O)c2ccc(F)c(C(F)(F)C(=O)N3CCC(O)CC3)c2)cn1` [Example 80, 3-(1,1-difluoro-2-(4-hydroxypiperidin-1-yl)-2-oxoethyl)-4-fluoro-N-(1-isopropyl-1H-pyrazol-4-yl)benzamide] here?
The CC50 at 7 days was > 30 µM.

And the EC50 [2]?
The EC50 was > 30 µM.

Which CC50 at 7 days [1] does the source give for `Cc1cc(NC(=O)c2ccc(C(F)(F)C(=O)NC(C)(C)C)s2)ccc1F` [Example 81, 5-(2-(tert-butylamino)-1,1-difluoro-2-oxoethyl)-N-(4-fluoro-3-methylphenyl)thiophene-2-carboxamide] here?
Its CC50 at 7 days is > 30 µM.

And the EC50 [2]?
Its EC50 is 5 to 30 µM.

With `Cc1cc(NC(=O)c2ccc(C(F)(F)C(=O)NC(C)(C)CO)s2)ccc1F` [Example 82, 5-(1,1-difluoro-2-((1-hydroxy-2-methylpropan-2-yl)amino)-2-oxoethyl)-N-(4-fluoro-3-methylphenyl)thiophene-2-carboxamide] as the molecule, how does the CC50 at 7 days [1] read?
The CC50 at 7 days was > 30 µM.

What about the EC50 [2] of the same molecule?
The EC50 was > 30 µM.

Which CC50 at 7 days [1] does the source give for `Cc1cc(NC(=O)c2ccc(F)c(C(F)(F)C(=O)N[C@H]3CCCC[C@@H]3O)c2)ccc1F` [Example 83, 3-(1,1-difluoro-2-(((1S,2S)-2-hydroxycyclohexyl)amino)-2-oxoethyl)-4-fluoro-N-(4-fluoro-3-methylphenyl)benzamide] here?
Its CC50 at 7 days is > 30 µM.

What about the EC50 [2] of the same molecule?
Its EC50 is 5 to 30 µM.

For `Cc1cc(NC(=O)c2ccc(F)c(C(F)(F)C(=O)N[C@@H]3CCOC3=O)c2)ccc1F` [Example 84, (R)-3-(1,1-difluoro-2-oxo-2-((2-oxotetrahydrofuran-3-yl)amino)ethyl)-4-fluoro-N-(4-fluoro-3-methylphenyl)benzamide], which CC50 at 7 days [1] is on record?
The CC50 at 7 days was > 30 µM.

And the EC50 [2]?
Its EC50 is > 30 µM.

What does the source list for `O=C(Nc1ccc(F)c(Cl)c1)c1ccc(F)c(C(F)(F)C(=O)N2CCC(O)CC2)c1` [Example 85, N-(3-chloro-4-fluorophenyl)-3-(1,1-difluoro-2-(4-hydroxypiperidin-1-yl)-2-oxoethyl)-4-fluorobenzamide]?
CC50 at 7 days [1]: 5 to 30 µM; EC50 [2]: < 5 µM

What does the source list for `O=C(Nc1cc(F)c(F)c(F)c1)c1ccc(F)c(C(F)(F)C(=O)N2CCC(O)CC2)c1` [Example 86, 3-(1,1-difluoro-2-(4-hydroxypiperidin-1-yl)-2-oxoethyl)-4-fluoro-N-(3,4,5-trifluorophenyl)benzamide]?
CC50 at 7 days [1]: 5 to 30 µM; EC50 [2]: < 5 µM

Which CC50 at 7 days [1] does the source give for `O=C(Nc1ccc(F)c(Br)c1)c1ccc(F)c(C(F)(F)C(=O)N2CCC(O)CC2)c1` [Example 87, N-(3-bromo-4-fluorophenyl)-3-(1,1-difluoro-2-(4-hydroxypiperidin-1-yl)-2-oxoethyl)-4-fluorobenzamide] here?
The CC50 at 7 days was 5 to 30 µM.

And the EC50 [2]?
The EC50 was < 5 µM.

With `N#Cc1cc(NC(=O)c2ccc(F)c(C(F)(F)C(=O)N3CCC(O)CC3)c2)ccc1F` [Example 88, N-(3-cyano-4-fluorophenyl)-3-(1,1-difluoro-2-(4-hydroxypiperidin-1-yl)-2-oxoethyl)-4-fluorobenzamide] as the molecule, how does the CC50 at 7 days [1] read?
Its CC50 at 7 days is > 30 µM.

What about the EC50 [2] of the same molecule?
The EC50 was < 5 µM.

With `Cn1cc(NC(=O)c2ccc(F)c(C(F)(F)C(=O)N3CCC(O)CC3)c2)cn1` [Example 89, 3-(1,1-difluoro-2-(4-hydroxypiperidin-1-yl)-2-oxoethyl)-4-fluoro-N-(1-methyl-1H-pyrazol-4-yl)benzamide] as the molecule, how does the CC50 at 7 days [1] read?
The CC50 at 7 days was 5 to 30 µM.

And the EC50 [2]?
The EC50 was > 30 µM.
